Experimental data as given in BindingDB's records for doi:10.1021/jf050110v (China Pharmaceutical University, 2020).

Target: High affinity nerve growth factor receptor (Homo sapiens, UniProt P04629)
Experiment: Inhibition of wild type […] (unknown origin) incubated for 30 mins by caliper mobility shift assay

Chain of High affinity nerve growth factor receptor (P04629 whole entry): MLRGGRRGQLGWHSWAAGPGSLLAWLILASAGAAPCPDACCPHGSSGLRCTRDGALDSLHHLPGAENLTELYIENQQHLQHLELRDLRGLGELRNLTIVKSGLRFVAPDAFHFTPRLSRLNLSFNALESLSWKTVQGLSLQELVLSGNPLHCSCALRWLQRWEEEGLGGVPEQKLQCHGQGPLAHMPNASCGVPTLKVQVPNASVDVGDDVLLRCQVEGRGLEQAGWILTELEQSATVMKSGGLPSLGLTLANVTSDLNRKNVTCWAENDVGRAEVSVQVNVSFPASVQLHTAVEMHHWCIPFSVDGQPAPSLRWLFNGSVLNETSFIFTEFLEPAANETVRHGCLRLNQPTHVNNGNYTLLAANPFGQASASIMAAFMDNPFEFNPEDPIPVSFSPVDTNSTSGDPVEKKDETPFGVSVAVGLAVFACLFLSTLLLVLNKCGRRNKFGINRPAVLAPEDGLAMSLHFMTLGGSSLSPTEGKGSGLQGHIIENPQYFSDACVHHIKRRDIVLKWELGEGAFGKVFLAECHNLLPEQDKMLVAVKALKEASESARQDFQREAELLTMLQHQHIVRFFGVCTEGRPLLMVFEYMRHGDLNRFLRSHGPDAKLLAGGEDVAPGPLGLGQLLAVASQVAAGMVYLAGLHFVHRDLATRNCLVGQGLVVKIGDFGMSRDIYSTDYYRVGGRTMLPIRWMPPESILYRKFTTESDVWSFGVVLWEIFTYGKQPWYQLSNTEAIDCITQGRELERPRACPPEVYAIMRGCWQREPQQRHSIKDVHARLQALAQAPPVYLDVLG

| Structure (SMILES) | IC50 [nM] |
| --- | --- |
| O=C(NC1CCOCC1)c1cnn2ccc(NCc3cccc(F)c3)nc12 | 3.6 |
| O=C(N[C@H]1CC[C@H](O)CC1)c1cnn2ccc(NCc3cccc(F)c3)nc12 | 1.6 |
| CO[C@H]1CC[C@H](NC(=O)c2cnn3ccc(NCc4cccc(F)c4)nc23)CC1 | 1.5 |
| CC(Nc1ccn2ncc(C(=O)NC3CCOCC3)c2n1)c1cccc(F)c1 (stereo unspecified) | 2.1 |
| CC(Nc1ccn2ncc(C(=O)N[C@H]3CC[C@H](O)CC3)c2n1)c1cccc(F)c1 (stereo partly specified) | 3 |
| CN(Cc1cccc(F)c1)c1ccn2ncc(C(=O)NC3CCOCC3)c2n1 | 3.2 |
| CN(Cc1cccc(F)c1)c1ccn2ncc(C(=O)N[C@H]3CC[C@H](O)CC3)c2n1 | 1.3 |
| CO[C@H]1CC[C@H](NC(=O)c2cnn3ccc(N(C)Cc4cccc(F)c4)nc23)CC1 | 1.1 |
| O=C(NC1CCOCC1)c1cnc2ccc(NCc3cccc(F)c3)nn12 | 8.4 |
| O=C(N[C@H]1CC[C@H](O)CC1)c1cnc2ccc(NCc3cccc(F)c3)nn12 | 2.8 |
| CO[C@H]1CC[C@H](NC(=O)c2cnc3ccc(NCc4cccc(F)c4)nn23)CC1 | 3 |
